Assay results as given in patent publication US8871741B2, “Inhibition of TNF-α induced activation of NFKB by pentosan polysulfate” (Icahn School of Medicine at Mount Sinai, priority 2010, dated 2014).

Key:
NF-κB [1] = assay: NF-κB DNA binding, gel mobility shift assay (EMSA); assay type: cell-based, mouse; details: proximal tubular cells, PPS 800 μg/ml for ½ hour before TNFα 10 ng/ml, nuclear protein after 1 hour
Description: Additionally, NF-κB DNA binding was examined by gel mobility shift assay (EMSA). Briefly, proximal tubular cells were pre-incubated with or without PPS (800 μg/ml) for ½ hour before the addition of TNFα (10 ng/ml). Nuclear protein was extracted from cells 1 hour after treatment. A NF-κB probe was prepared by annealing complementary single-stranded oligonucleotides with 5′-ACTG overhangs (MWG Biotechnologies, Inc.) and were labeled by filling in with [-^32P]dGTP and [-^32P]dCTP using Klenow enzyme. Labeled probes were purified with Nuctrap purification columns (Roche Applied Science). EMSAs were performed using 10^5 cpm of labeled probe and 10 μg of nuclear extracts/reaction. DNA binding complexes were separated by electrophoresis on a 5% polyacrylamide-Tris/glycine-EDTA gel, which was dried and exposed to X-ray film.

MMP-2/MMP-9 = assay: Net MMP activity in aortic extracts, synthetic colorimetric substrate; assay type: in vivo, rabbit; details: aortic arch extracts, WHHL rabbits treated with PPS; P<0.05
Description: (§1) MMP activity in aortic extracts and conditioned media from monocytes was assessed, as previously described (Jacot T A, et al., Lab Invest. 1996; 75:791-79). Briefly, aortic segments were homogenized and extracted in RIPA buffer (25 mM Tris, pH 7.4, 150 mM KCl, 5 mM EDTA, 1% Nonidet P-40, 0.5% sodium deoxycholate, and 0.1% SDS). Insoluble material was precipitated by centrifugation, and soluble extracts were collected and stored at −20° C. for further analysis. For in vitro experiments, cell supernatants were centrifuged to remove cellular debris, and diluted appropriately to normalize for cell number. Aortic extracts and conditioned media were then mixed with sample buffer (1% SDS, 0.08 M Tris pH 6.8, 4% glycerol, and 0.006% bromophenol blue), and loaded onto a 10% gelatin polyacrylamide gel, and processed as described (Jacot T A, et al., Lab Invest. 1996; 75:791-79). For reverse zymography, samples were loaded onto a 15% gelatin polyacrylamide gel containing 0.5% porcine gelatin and 6 μg recombinant gelatinase A, and processed as described (Elliot S J, et al., J Am Soc Nephrol. 1999; 10: 62-68).
MMP-2/MMP-9 net activity in aortic extracts was evaluated by using a synthetic colorimetric substrate [Ac-Pro-Leu-Gly-(2-mercapto-4-methylpentanoyl)-Leu-Gly-Oet; Calbiochem, Cambridge, Mass.], according to the manufacturer's directions.

monocytic cells = assay: Cell viability by trypan blue staining; assay type: cell-based, human
NF-κB [2] = assay: NF-κB luciferase reporter assay in proximal tubular cells; assay type: cell-based, mouse; details: PPS 50-200 μg/ml, TNFα 10 ng/ml
Description: To further determine the effect of PPS on NF-κB transcription activity, proximal tubular cells were transfected with a NF-κB reporter in the presence or absence of PPS (50-200 μg/ml) and TNFα (10 ng/ml). Some cells were also transfected with a cDNA expression vector containing constitutively active IκB, dominant negative IKK, or IKK. A β-galactosidase cDNA expression vector was co-transfected with the NF-κB reporter to serve as an internal control for transfection efficiency. Luciferase and β-galactosidase activity were measured using substrate assays. The same amount of DNA (1 μg/well of 24 well plates) was used for each transfection throughout the experiments.

[3] = system: MCP-1, RANTES, CXCL-1 mRNA; assay: Real-time PCR of chemokine mRNA in renal cortex; assay type: in vivo, mouse; details: PPS treated 22 month-old diabetic mice; P<0.01 vs. DN
Description: Total RNA was isolated from renal cortex using a PureYield RNA Midiprep kit (Promega, Madison, Wis.). The preparation was free of DNA contamination and 500 ng of total RNA from each sample was reverse-transcribed as previously described (Zheng F, Striker G E, Esposito C, Lupia E, Striker L J. Kidney Int 1998, 54:1999-2007; Zheng F, et al., Am Pathol 2003, 162:1339-1348). The levels of MCP-1 (monocyte chemoattractant protein-1), CXCL1 (c-x-c motif ligand 1), MIP2 (macrophage inflammatory protein 2), RANTES (regulated on activation, normal T cell expressed and secreted), ICAM-1 ([…] adhesion molecule 1), GRP78 (glucose regulatory protein 78), CHOP, and IL-6 (interleukin 6) mRNA were determined by real-time polymerase chain reaction (PCR). The primers used for the measurement were:
mRNA levels were corrected by the levels of β-actin or GAPDH mRNA. The expression of TNFα mRNA in kidney was determined by both a real time and a regular PCR using the primer of forward, 5′-[…]-3′ (SEQ ID NO: 17), reverse, 5′-[…]-3′ (SEQ ID NO: 18). GAPDH and β-actin mRNA levels were measured in the same sample.

MMP-2 = assay: Zymography of U937 cell supernatants, MMP-2; assay type: cell-based, human
Description: Human pro-monocytic U937 cells were obtained from American Type Culture Collection (Manassas, Va.) and grown in RPMI medium supplemented with 10% FBS. U937 cells were plated in six-well plates at a density of 5×10^6 cells/ml. The cells were then stimulated with 10 ng/ml TNF-α, in the presence or absence of either increasing concentrations of PPS (10-100 μg/ml) or heparin (100 μg/ml), and incubated at 37° C. for 3 hours. Following stimulation, cells were placed in 0.1% BSA-serum-free medium for 16-18 hours. The media was then collected, centrifuged, and supernatants were stored at −80° C. for the assessment of MMP activity. The cell number was determined by direct cell counting.
as §1

[4] = U937 cells, dose-response experiments

Substance: pentosan polysulfate [PPS]
- TNFα-induced increase in NF-κB DNA binding activity (NF-κB [1]): nearly completely blocked
- Net MMP-2/MMP-9 activity, reduction compared to water-treated animals (MMP-2/MMP-9): 27.74±4.32%
- effect on cell viability (monocytic cells): no effect
- TNFα stimulated NF-κB transcriptional activity (NF-κB [2]): dependently decreased
- mRNA levels of MCP-1, RANTES, and CXCL-1 in renal cortices [3]: levels similar to 22 month-old non-diabetic
- MMP-2 activity, reduction by PPS treatment (MMP-2; U937 cells stimulated with 10 ng/ml TNF-α, 100 μg/ml PPS, P<0.05): 37.73%±12.17%
- concentration at which the PPS effect on MMP activity was evident (MMP-2; [4]): 25 µg/mL
- concentration at which the PPS effect on MMP activity was maximal (MMP-2; [4]): 75 to 100 µg/mL
- MMP-2 activity, decrease by PPS treatment (MMP-2; unstimulated U937 cells, 100 μg/ml PPS, figure data as percent of control, P<0.01): 45.40%±9.68%
